The results in this text go back to patent US9775902B2, “Compounds and methods for treatment of stroke” (FIBROGEN, INC, priority 2006, dated 2017).

The structures appear in SMILES notation.

For experiment [1], the system named is Wistar rats, transient occlusion of the MCA. As to the kind of experiment: Rat tMCAO, 28 days: lesion area, neuronal degeneration, brain tissue loss (Fluoro-Jade B). The class given is in vivo. The conditions noted are these: 60 mg/kg p.o. at 1.5 and 24 hours after reperfusion then 30 mg/kg every other day, vs non-treated control. On the procedure:
In another series of experiments, the long term effect of administration of compounds of the present invention on stroke and brain tissue damage associated with stroke was examined. For these studies, the effect of compounds of the present invention on lesion area, neuronal degeneration, and brain tissue loss following stroke was examined 28 days after transient MCA occlusion. Wistar rats (320 g) were subjected to transient occlusion of the MCA as described above. Compound F (60 mg/kg) was administered by oral gavage at 1.5 hours and 24 hours after reperfusion and subsequently every other day (using a dose of 30 mk/kg, p.o.) for 28 days. Twenty-eight days after transient MCA occlusion, animals were anesthetized with 3% isoflurane in oxygen and transcardially perfused with 100 ml of 0.9% saline solution (Hospira Inc, Lake Forest Ill.). Brains were removed and sliced into 6 coronal sections, 2 mm thick, and embedded in cryomold standard (Sakura Finetek, Ca) using O.C.T. embedded medium (Sakura Finetek, Ca). […]
Changes in lesion area were measured as follows. […] Lesion area was determined by measuring the infarcted (i.e., non-Fluoro-Jade B stained) areas of each brain section. […]
Changes in neuronal degeneration were measured as follows. […] Fluoro-Jade B positive cells observed in the digital photographs were quantified using Image Pro-Plus image analysis software (Media Cybernetics, Silver Spring Md.). Extent of neuronal degeneration was determined by comparing the total number of Fluoro-Jade B positive cells per mm^2 area of the treated group to the same area of the corresponding vehicle-control group. The distance of each coronal section from bregma was determined.
Changes in area of brain tissue loss were measured as follows. […] Area of brain tissue loss, associated with the ischemic insult, was measured by […]. A percentage value was then determined by dividing the area of brain tissue loss associated with the stroke by the total area of the contralateral hemisphere. […]

Experiment [2] has as its system Wistar rats, transient MCA occlusion. Briefly: Tactile adhesion test in rat tMCAO. It counts as in vivo. The note with it: 60 mg/kg p.o. at 1.5 and 24 hours after reperfusion then 30 mg/kg every other day, day 7, vs non-treated control, FIG. 4. From the text:
Rats subjected to cerebral ischemia following transient MCA occlusion have deficits in sensorimotor and neuromuscular function which can be assessed using various behavioral tests. (See, e.g., Aronowski et al. J Cereb Blood Flow Metab (1996) 16:705-713; and Colbourne et al. J Cereb Blood Flow Metab (2000) 20:1702-1708.) The effect of compounds of the present invention on various functional impairments associated with stroke was examined using an animal model of ischemic stroke. In this series of experiments, male Wistar rats (300 g) underwent behavioral testing after transient MCA occlusion. One day prior to MCAO surgery, the rats were trained to the grip strength meter and subjected to tactile adhesion testing. Following their training, rats were subjected to transient occlusion of the MCA in the same manner described in Example 10 above. Compound F (60 mg/kg, p.o.) was administered by oral gavage at 1.5 hours and 24 hours after reperfusion and then every other day (with a dose of 30 mk/kg, p.o.) for 28 days. […]
A tactile adhesion test was used to measure sensorimotor deficits and function. […] The latency (i.e. time required for the animal to remove each stimulus from the forelimbs) was recorded for ipsilateral (right) and contralateral (left) forelimbs separately. Three trials separated by 5 minutes were carried out for each rat and mean latency values in seconds (sec) were recorded.

The subject of experiment [3] is vascular endothelial growth factor (VEGF). Briefly: Brain VEGF gene expression in mice after intravenous injection. The class given is in vivo, Swiss Webster mice. The conditions noted are these: 20 mg/kg i.v., four hours, quantitative real time PCR normalized to 18s RNA. On the procedure: The effect of compounds of the present invention on regulation of cytoprotective and neuroprotective gene expression in brain was evaluated. In one series of experiments, male Swiss Webster mice were administered by intravenous injection various compounds of the present invention. Animals treated by intravenous injection received a 6 ml/kg volume of either 5% Dextrose with an equimolar amount of Meglumine (vehicle control) or 20 mg/kg of a compound of the present invention in 5% dextrose with an equimolar amount of Meglumine Animals were euthanized four hours later and their brains placed in RNAlater (Ambion, Austin Tex.) for subsequent analysis. Tissues were homogenized in Trizol (Invitrogen, Carlsbad Calif.) using 5-mm steel beads in a Mixer Mill (Qiagen, Valencia Calif.). RNA was isolated from the Trizol solution and then further purified using RNeasy kit (Qiagen). cDNA was prepared from […] total RNA using Omniscript reverse transcriptase (Qiagen) and random hexamers. Quantitative real time PCR was performed in a 7900HT instrument (Applied Biosystems, Foster City Calif.) using TaqMan Assays-on-Demand (Applied Biosystems). Gene expression levels were normalized to that of 18s RNA.

For the compound `COc1ccc(Oc2ccc3c(O)c(C(=O)NCC(=O)O)ncc3c2)cc1` [Compound F, {[4-Hydroxy-7-(4-methoxy-phenoxy)-isoquinoline-3-carbonyl]-amino}-acetic acid], the lesion area entry in experiment [1] (FIG. 1) is “reduced”. The “neuronal degeneration (Fluoro-Jade B positive cells)” value in experiment [1] (FIG. 2) is recorded as “reduced”. Also, the brain tissue loss result in experiment [1] (FIG. 3) was “reduced”. Besides, the “latency in the tactile adhesion test” value in experiment [2] is given as “significantly improved”. The “VEGF gene expression in brain” value in experiment [3] is 1.5.
